{"source": "patent US6943026B1", "about": "“Antitumour vector constructs and methods” (Cyclacel Limited, priority 1995, dated 2005)", "test_system": "Saos-2 cells", "assay": "GCV tolerance (toxicity of GCV alone to cells)", "type": "cell-based, human", "conditions": "1.25×10^−5-6.2×10^−5M", "experimental": "The GCV tolerance profile of Saos-2 cells was determined in parallel by treating the cells with various concentrations of GCV (ranging from 0.1 μmole to 2 mM).\nThe toxicity of the GCV to cells were analysed by subjecting the cells to various concentration of GCV (ranging from 0.1 μmole to 2 mM GCV at 37° C.) for 3 days. The remaining steps of the treatment were carried out as the tk-GCV assay."}
{"smiles": "Nc1nc(O)c2ncn(COC(CO)CO)c2n1", "note": "[Gancyclovir, Ganciclovir]", "values": [{"measurement": "effect on cell viability of gancyclovir by itself", "value": "no effect"}]}
